Measured values as given in publication PMC2933939 (Bioorganic & medicinal chemistry, 2010).
Like-named read-outs stand apart in the source and are kept apart here. Non-standard residues stand in square brackets, D forms with d. Residues, ends and D or L forms follow the SMILES beside them. *: point of attachment. dNMeF = CN[C@H](Cc1ccccc1)C(=O)O; Cha = N[C@@H](CC1CCCCC1)C(=O)O; NMeK = CN[C@@H](CCCCN)C(=O)O; dNMeK = CN[C@H](CCCCN)C(=O)O; ClZ = O=C(OCc1ccccc1Cl)*; Bn = c1ccc(C*)cc1

What was measured:
colon cancers = conditions: drug of choice for colon cancer treatment; no reference given; cited from earlier work
[1] = system: HCT-116 colon cancer cells; assay: 3H-thymidine uptake cytotoxicity assay; format: cell-based

SMILES	cytotoxicity (in words) [1]	other results
O=c1[nH]cc(F)c(=O)[nH]1 [Compound 5-FU, 5-fluorouracil]	–	IC50 (colon cancers): 5 µM
CC(C)[C@H]1NC(=O)[C@@H](Cc2ccccc2)N(C)C(=O)[C@H](Cc2ccccc2)NC(=O)[C@H](COCc2ccccc2)NC(=O)[C@H](CC2CCCCC2)NC1=O [Compound 19, Phe-N-Me-D-Phe-D-Val-Cha-Ser(Bn)] (cyclo([Cha]S(Bn)F[dNMeF][dV]))	–	half-life (Half-life (minutes) n1, n1): 45 min; half-life (Half-life (minutes) n2, n2): 30 min
CC(C)[C@H]1NC(=O)[C@@H](Cc2ccccc2)NC(=O)[C@H](Cc2ccccc2)NC(=O)[C@H](COCc2ccccc2)NC(=O)[C@H](CC2CCCCC2)NC1=O [Compound 20, Phe-D-Phe-D-Val-Cha-Ser(Bn)] (cyclo([Cha]S(Bn)F[dF][dV]))	little cytotoxic activity	–
CC(C)C[C@@H]1NC(=O)[C@H](C(C)C)NC(=O)[C@@H](Cc2ccccc2)N(C)C(=O)[C@H](Cc2ccccc2)NC(=O)[C@H](CCCCN)NC1=O [Compound 30, Phe-N-Me-D-Phe-Val-Leu-Lys] (cyclo(F[dNMeF]VLK))	not active	–
CC(C)C[C@@H]1NC(=O)[C@H](Cc2ccccc2)NC(=O)[C@H](CCCCN)NC(=O)[C@H](CC(C)C)NC(=O)[C@H](C(C)C)NC1=O [Compound 32, Phe-Leu-Val-Leu-Lys] (cyclo(FLVLK))	inactive	–
CC(C)C[C@@H]1NC(=O)[C@H](Cc2ccccc2)NC(=O)[C@H](CCCCN)N(C)C(=O)[C@H](CC(C)C)NC(=O)[C@H](C(C)C)NC1=O [Compound 35, Phe-Leu-Val-Leu-N-Me-Lys] (cyclo(FLVL[NMeK]))	inactive	–
CC(C)C[C@@H]1NC(=O)[C@H](Cc2ccccc2)NC(=O)[C@H](CCCCN)NC(=O)[C@H](CC(C)C)NC(=O)[C@@H](C(C)C)NC1=O [Compound 37, Phe-Leu-D-Val-Leu-Lys] (cyclo(FL[dV]LK))	inactive	–
CC(C)C[C@@H]1NC(=O)[C@H](Cc2ccccc2)NC(=O)[C@@H](Cc2ccccc2)NC(=O)[C@@H](CCCCNC(=O)OCc2ccccc2Cl)N(C)C(=O)[C@H](C(C)C)NC1=O [Compound 41, Phe-Leu-Val-N-Me-D-Lys(Cl-Cbz)-D-Phe] (cyclo(FLV[dNMeK](ClZ)[dF]))	not very potent at all	–
CC(C)C[C@@H]1NC(=O)[C@H](Cc2ccccc2)NC(=O)[C@@H](Cc2ccccc2)N(C)C(=O)[C@@H](CCCCNC(=O)OCc2ccccc2Cl)NC(=O)[C@H](C(C)C)NC1=O [Compound 42, Phe-Leu-Val-D-Lys(Cl-Cbz)-N-Me-D-Phe] (cyclo(FLV[dK](ClZ)[dNMeF]))	remarkable cytotoxicity	–
